Assay results taken from ChEMBL document CHEMBL1201862, “PubChem BioAssay data set” (2004).
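Cultured in 96-well plates, cells were exposed to test compound for 48 hours across five concentrations. GI50 = concentration required for 50% inhibition of growth.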 Active and inactive are the calls of the source. Rule as the data show it: active = GI50 up to about 1.1 µM and inactive = higher.

What was measured:
Experiment in all cases: NCI tumour cell line growth inhibition, 48 h
SF-295 = tested on: SF-295
COLO 205 = tested on: COLO 205
UACC-62 = tested on: UACC-62
MOLT-4 = tested on: MOLT-4
OVCAR-3 = tested on: OVCAR-3
SF-268 = tested on: SF-268
CCRF-CEM = tested on: CCRF-CEM
OVCAR-8 = tested on: OVCAR-8
NCI-H460 = tested on: NCI-H460
A549 = tested on: A549
SK-MEL-28 = tested on: SK-MEL-28
UACC-257 = tested on: UACC-257
SN12C = tested on: SN12C
RPMI-8226 = tested on: RPMI-8226
LOX IMVI = tested on: LOX IMVI
NCI/ADR-RES = tested on: NCI/ADR-RES
HL-60 = tested on: HL-60
MDA-MB-435 = tested on: MDA-MB-435
SK-MEL-2 = tested on: SK-MEL-2
MDA-N = tested on: MDA-N
HCC 2998 = tested on: HCC 2998
HCT-116 = tested on: HCT-116
OVCAR-5 = tested on: OVCAR-5
MDA-MB-231 = tested on: MDA-MB-231
CAKI-1 = tested on: CAKI-1
NCI-H23 = tested on: NCI-H23
SK-OV-3 = tested on: SK-OV-3
U-251 = tested on: U-251
BT-549 = tested on: BT-549
SK-MEL-5 = tested on: SK-MEL-5
DU-145 = tested on: DU-145
PC-3 = tested on: PC-3
HOP-92 = tested on: HOP-92
IGROV-1 = tested on: IGROV-1
KM12 = tested on: KM12
K562 = tested on: K562
RXF 393 = tested on: RXF 393
SR = tested on: SR
EKVX = tested on: EKVX
A498 = tested on: A498
UO-31 = tested on: UO-31
786-0 = tested on: 786-0
HT-29 = tested on: HT-29
SNB-19 = tested on: SNB-19
NCI-H522 = tested on: NCI-H522
OVCAR-4 = tested on: OVCAR-4
M14 = tested on: M14
Malme-3M = tested on: Malme-3M
SF-539 = tested on: SF-539
HCT-15 = tested on: HCT-15
NCI-H226 = tested on: NCI-H226
TK-10 = tested on: TK-10
ACHN = tested on: ACHN
Hs-578T = tested on: Hs-578T
MCF7 = tested on: MCF7
T47D = tested on: T47D
SNB-75 = tested on: SNB-75
SW-620 = tested on: SW-620
HOP-62 = tested on: HOP-62

With `C/C(=N\O)C1CC(CC(=O)O)C1(C)C` (stereo not drawn) the GI50 (SF-295) was > 100 µM (inactive), the GI50 (COLO 205) was > 100 µM (inactive) and the GI50 (UACC-62) was > 100 µM (inactive). The GI50 (MOLT-4) was > 100 µM (inactive), the GI50 (OVCAR-3) was 10.2 µM (inactive) and the GI50 (SF-268) was > 100 µM (inactive). For the same compound, the GI50 (CCRF-CEM) was > 100 µM (inactive), the GI50 (OVCAR-8) was > 100 µM (inactive) and the GI50 (NCI-H460) was > 100 µM (inactive). The GI50 (A549) was > 100 µM (inactive), the GI50 (SK-MEL-28) was > 100 µM (inactive) and the GI50 (UACC-257) was > 100 µM (inactive). The GI50 (SN12C) was > 100 µM (inactive), the GI50 (RPMI-8226) was > 100 µM (inactive) and the GI50 (LOX IMVI) was > 100 µM (inactive). The GI50 (NCI/ADR-RES) was > 100 µM (inactive), the GI50 (HL-60) was > 100 µM (inactive) and the GI50 (MDA-MB-435) was > 100 µM (inactive). The GI50 (SK-MEL-2) was > 100 µM (inactive), the GI50 (MDA-N) was > 100 µM (inactive) and the GI50 (HCC 2998) was 90.2 µM (inactive). The GI50 (HCT-116) was > 100 µM (inactive), the GI50 (OVCAR-5) was > 100 µM (inactive) and the GI50 (MDA-MB-231) was > 100 µM (inactive). For the same compound, the GI50 (CAKI-1) was > 100 µM (inactive), the GI50 (NCI-H23) was > 100 µM (inactive) and the GI50 (SK-OV-3) was > 100 µM (inactive). The GI50 (U-251) was > 100 µM (inactive), the GI50 (BT-549) was > 100 µM (inactive) and the GI50 (SK-MEL-5) was > 100 µM (inactive). For the same compound, the GI50 (DU-145) was > 100 µM (inactive), the GI50 (PC-3) was > 100 µM (inactive) and the GI50 (HOP-92) was > 100 µM (inactive). For the same compound, the GI50 (IGROV-1) was > 100 µM (inactive), the GI50 (KM12) was > 100 µM (inactive) and the GI50 (K562) was > 100 µM (inactive). The GI50 (RXF 393) was > 100 µM (inactive), the GI50 (SR) was > 100 µM (inactive) and the GI50 (EKVX) was > 100 µM (inactive). The GI50 (A498) was > 100 µM (inactive), the GI50 (UO-31) was > 100 µM (inactive) and the GI50 (786-0) was > 100 µM (inactive). The GI50 (HT-29) was > 100 µM (inactive), the GI50 (SNB-19) was > 100 µM (inactive) and the GI50 (NCI-H522) was > 100 µM (inactive). For the same compound, the GI50 (OVCAR-4) was > 100 µM (inactive), the GI50 (M14) was > 100 µM (inactive) and the GI50 (Malme-3M) was > 100 µM (inactive). The GI50 (SF-539) was > 100 µM (inactive), the GI50 (HCT-15) was greater than 100 µM and the GI50 (NCI-H226) was > 100 µM (inactive). For the same compound, the GI50 (TK-10) was > 100 µM (inactive), the GI50 (ACHN) was > 100 µM (inactive) and the GI50 (Hs-578T) was > 100 µM (inactive). For the same compound, the GI50 (MCF7) was > 100 µM (inactive), the GI50 (T47D) was > 100 µM (inactive) and the GI50 (SNB-75) was > 100 µM (inactive). For the same compound, the GI50 (SW-620) was > 100 µM (inactive) and the GI50 (HOP-62) was > 100 µM (inactive).

For `CN(C)c1ccc(/C=C/C(=O)c2ccc(O)cc2)cc1`, the GI50 (SF-295) was 4.58 µM (inactive), the GI50 (COLO 205) was 14 µM (inactive) and the GI50 (UACC-62) was 4.08 µM (inactive). For the same compound, the GI50 (MOLT-4) was 2.64 µM (inactive), the GI50 (OVCAR-3) was 2.9 µM (inactive) and the GI50 (SF-268) was 15.4 µM (inactive). For the same compound, the GI50 (CCRF-CEM) was 2.83 µM (inactive), the GI50 (OVCAR-8) was 7.29 µM (inactive) and the GI50 (NCI-H460) was 4.72 µM (inactive). For the same compound, the GI50 (A549) was 6.27 µM (inactive), the GI50 (SK-MEL-28) was 4.88 µM (inactive) and the GI50 (UACC-257) was 7.66 µM (inactive). For the same compound, the GI50 (SN12C) was 5.37 µM (inactive), the GI50 (RPMI-8226) was 3.85 µM (inactive) and the GI50 (LOX IMVI) was 6.35 µM (inactive). For the same compound, the GI50 (NCI/ADR-RES) was 2.98 µM (inactive), the GI50 (HL-60) was 1.79 µM (inactive) and the GI50 (MDA-MB-435) was 1.27 µM (inactive). The GI50 (SK-MEL-2) was 14 µM (inactive), the GI50 (MDA-N) was 0.935 µM (active) and the GI50 (HCC 2998) was 15.1 µM (inactive). For the same compound, the GI50 (HCT-116) was 3.69 µM (inactive), the GI50 (OVCAR-5) was 38.6 µM (inactive) and the GI50 (MDA-MB-231) was 22.3 µM (inactive). The GI50 (CAKI-1) was 12.9 µM (inactive), the GI50 (NCI-H23) was 11.3 µM (inactive) and the GI50 (SK-OV-3) was 4.78 µM (inactive). The GI50 (U-251) was 3.99 µM (inactive), the GI50 (BT-549) was 6.08 µM (inactive) and the GI50 (SK-MEL-5) was 6.58 µM (inactive). For the same compound, the GI50 (DU-145) was 8.67 µM (inactive), the GI50 (PC-3) was 14.8 µM (inactive) and the GI50 (HOP-92) was 38.2 µM (inactive). For the same compound, the GI50 (IGROV-1) was 10.2 µM (inactive), the GI50 (KM12) was 3.25 µM (inactive) and the GI50 (K562) was 1.7 µM (inactive). For the same compound, the GI50 (RXF 393) was 6.27 µM (inactive), the GI50 (SR) was 0.33 µM (active) and the GI50 (EKVX) was 31.3 µM (inactive). The GI50 (A498) was 17.1 µM (inactive), the GI50 (UO-31) was 14.4 µM (inactive) and the GI50 (786-0) was 7.64 µM (inactive). For the same compound, the GI50 (HT-29) was 5.21 µM (inactive), the GI50 (SNB-19) was 25.1 µM (inactive) and the GI50 (NCI-H522) was 2.71 µM (inactive). The GI50 (OVCAR-4) was 24.2 µM (inactive), the GI50 (M14) was 4.14 µM (inactive) and the GI50 (Malme-3M) was 8.45 µM (inactive). The GI50 (SF-539) was 3.2 µM (inactive), the GI50 (HCT-15) was 2.94 µM and the GI50 (NCI-H226) was 56.4 µM (inactive). The GI50 (TK-10) was 35.3 µM (inactive), the GI50 (ACHN) was 18.8 µM (inactive) and the GI50 (Hs-578T) was 17.4 µM (inactive). The GI50 (MCF7) was 4.11 µM (inactive), the GI50 (T47D) was 13.5 µM (inactive) and the GI50 (SNB-75) was 5.2 µM (inactive). For the same compound, the GI50 (SW-620) was 3.57 µM (inactive) and the GI50 (HOP-62) was 10.1 µM (inactive).
